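Compound exposure: 48 hours, 5 concentrations, 96-well plates. GI50: concentration for 50% inhibition of growth.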 Active and inactive are the calls of the source. Cut-off read from the data, not from the text of the source: active = GI50 up to about 1.1 µM and inactive = higher.
Legend:
Assay in all cases: inhibition of tumour cell growth, NCI panel, 48 h
786-0 = tested on: 786-0
A498 = tested on: A498
A549 = tested on: A549
ACHN = tested on: ACHN
CAKI-1 = tested on: CAKI-1
CCRF-CEM = tested on: CCRF-CEM
DLD-1 = tested on: DLD-1
DMS-114 = tested on: DMS-114
DMS-273 = tested on: DMS-273
EKVX = tested on: EKVX
HCC 2998 = tested on: HCC 2998
HCT-116 = tested on: HCT-116
HCT-15 = tested on: HCT-15
HL-60 = tested on: HL-60
HOP-18 = tested on: HOP-18
HOP-62 = tested on: HOP-62
HOP-92 = tested on: HOP-92
HT-29 = tested on: HT-29
IGROV-1 = tested on: IGROV-1
K562 = tested on: K562
KM-20L2 = tested on: KM-20L2
KM12 = tested on: KM12
LXFL 529 = tested on: LXFL 529
M14 = tested on: M14
M19-MEL = tested on: M19-MEL
Malme-3M = tested on: Malme-3M
NCI-H226 = tested on: NCI-H226
NCI-H23 = tested on: NCI-H23
NCI-H460 = tested on: NCI-H460
NCI-H522 = tested on: NCI-H522
OVCAR-4 = tested on: OVCAR-4
OVCAR-5 = tested on: OVCAR-5
OVCAR-8 = tested on: OVCAR-8
RXF 393 = tested on: RXF 393
SF-268 = tested on: SF-268
SF-295 = tested on: SF-295
SF-539 = tested on: SF-539
SK-MEL-28 = tested on: SK-MEL-28
SK-MEL-2 = tested on: SK-MEL-2
SK-MEL-5 = tested on: SK-MEL-5
SK-OV-3 = tested on: SK-OV-3
SN12C = tested on: SN12C
SNB-19 = tested on: SNB-19
SNB-75 = tested on: SNB-75
SNB-78 = tested on: SNB-78
SW-620 = tested on: SW-620
TK-10 = tested on: TK-10
U-251 = tested on: U-251
UACC-257 = tested on: UACC-257
UACC-62 = tested on: UACC-62
UO-31 = tested on: UO-31
XF498 = tested on: XF498
COLO 205 = tested on: COLO 205
LOX IMVI = tested on: LOX IMVI
MOLT-4 = tested on: MOLT-4
OVCAR-3 = tested on: OVCAR-3
RPMI-8226 = tested on: RPMI-8226
RXF 631 = tested on: RXF 631
SR = tested on: SR

SMILES: CN(C)C(=S)/N=c1\ssc(=S)n1-c1ccccc1
- GI50 (786-0): 16.8 µM (inactive)
- GI50 (A498): 21.3 µM (inactive)
- GI50 (A549): 25.3 µM (inactive)
- GI50 (ACHN): 16.7 µM (inactive)
- GI50 (CAKI-1): 19.2 µM (inactive)
- GI50 (CCRF-CEM): 0.36 µM (active)
- GI50 (DLD-1): 13.8 µM (inactive)
- GI50 (DMS-114): 15.9 µM (inactive)
- GI50 (DMS-273): 20.9 µM (inactive)
- GI50 (EKVX): 23.4 µM (inactive)
- GI50 (HCC 2998): 19.6 µM (inactive)
- GI50 (HCT-116): 13.7 µM (inactive)
- GI50 (HCT-15): 14.7 µM
- GI50 (HL-60): 18.1 µM (inactive)
- GI50 (HOP-18): > 100 µM (inactive)
- GI50 (HOP-62): 34.2 µM (inactive)
- GI50 (HOP-92): 20.4 µM (inactive)
- GI50 (HT-29): 18.9 µM (inactive)
- GI50 (IGROV-1): 17 µM (inactive)
- GI50 (K562): 17.1 µM (inactive)
- GI50 (KM-20L2): 16.6 µM (inactive)
- GI50 (KM12): 5.38 µM (inactive)
- GI50 (LXFL 529): 12.4 µM (inactive)
- GI50 (M14): 15 µM (inactive)
- GI50 (M19-MEL): 16.3 µM (inactive)
- GI50 (Malme-3M): 16.9 µM (inactive)
- GI50 (NCI-H226): 10.1 µM (inactive)
- GI50 (NCI-H23): 24.2 µM (inactive)
- GI50 (NCI-H460): 16.1 µM (inactive)
- GI50 (NCI-H522): 14.5 µM (inactive)
- GI50 (OVCAR-4): 15.9 µM (inactive)
- GI50 (OVCAR-5): 16 µM (inactive)
- GI50 (OVCAR-8): 15.2 µM (inactive)
- GI50 (RXF 393): 18.7 µM (inactive)
- GI50 (SF-268): 16.9 µM (inactive)
- GI50 (SF-295): 24.2 µM (inactive)
- GI50 (SF-539): 16.8 µM (inactive)
- GI50 (SK-MEL-28): 16.7 µM (inactive)
- GI50 (SK-MEL-2): 8.75 µM (inactive)
- GI50 (SK-MEL-5): 32.7 µM (inactive)
- GI50 (SK-OV-3): 83.9 µM (inactive)
- GI50 (SN12C): 15.3 µM (inactive)
- GI50 (SNB-19): 39.6 µM (inactive)
- GI50 (SNB-75): 17.4 µM (inactive)
- GI50 (SNB-78): 19.4 µM (inactive)
- GI50 (SW-620): 10.7 µM (inactive)
- GI50 (TK-10): 16.9 µM (inactive)
- GI50 (U-251): 15.8 µM (inactive)
- GI50 (UACC-257): 15.7 µM (inactive)
- GI50 (UACC-62): 16 µM (inactive)
- GI50 (UO-31): 23.3 µM (inactive)
- GI50 (XF498): 14.7 µM (inactive)

SMILES: O=C(O)C1(c2ccccc2)CCCNCC1 (stereo not drawn)
- GI50 (786-0): > 100 µM (inactive)
- GI50 (A498): > 100 µM (inactive)
- GI50 (A549): > 100 µM (inactive)
- GI50 (ACHN): > 100 µM (inactive)
- GI50 (CAKI-1): > 100 µM (inactive)
- GI50 (CCRF-CEM): > 100 µM (inactive)
- GI50 (COLO 205): > 100 µM (inactive)
- GI50 (DLD-1): > 100 µM (inactive)
- GI50 (DMS-114): > 100 µM (inactive)
- GI50 (DMS-273): > 100 µM (inactive)
- GI50 (EKVX): > 100 µM (inactive)
- GI50 (HCC 2998): > 100 µM (inactive)
- GI50 (HCT-116): > 100 µM (inactive)
- GI50 (HCT-15): > 100 µM
- GI50 (HOP-18): > 100 µM (inactive)
- GI50 (HOP-62): > 100 µM (inactive)
- GI50 (HOP-92): > 100 µM (inactive)
- GI50 (HT-29): > 100 µM (inactive)
- GI50 (IGROV-1): > 100 µM (inactive)
- GI50 (K562): > 100 µM (inactive)
- GI50 (KM-20L2): > 100 µM (inactive)
- GI50 (KM12): > 100 µM (inactive)
- GI50 (LOX IMVI): > 100 µM (inactive)
- GI50 (LXFL 529): > 100 µM (inactive)
- GI50 (M14): > 100 µM (inactive)
- GI50 (M19-MEL): > 100 µM (inactive)
- GI50 (MOLT-4): > 100 µM (inactive)
- GI50 (Malme-3M): > 100 µM (inactive)
- GI50 (NCI-H226): > 100 µM (inactive)
- GI50 (NCI-H23): > 100 µM (inactive)
- GI50 (NCI-H460): > 100 µM (inactive)
- GI50 (NCI-H522): > 100 µM (inactive)
- GI50 (OVCAR-3): > 100 µM (inactive)
- GI50 (OVCAR-4): > 100 µM (inactive)
- GI50 (OVCAR-5): > 100 µM (inactive)
- GI50 (OVCAR-8): > 100 µM (inactive)
- GI50 (RPMI-8226): > 100 µM (inactive)
- GI50 (RXF 393): > 100 µM (inactive)
- GI50 (RXF 631): > 100 µM (inactive)
- GI50 (SF-268): > 100 µM (inactive)
- GI50 (SF-295): > 100 µM (inactive)
- GI50 (SK-MEL-28): > 100 µM (inactive)
- GI50 (SK-MEL-2): > 100 µM (inactive)
- GI50 (SK-MEL-5): > 100 µM (inactive)
- GI50 (SK-OV-3): > 100 µM (inactive)
- GI50 (SN12C): > 100 µM (inactive)
- GI50 (SNB-19): > 100 µM (inactive)
- GI50 (SNB-75): > 100 µM (inactive)
- GI50 (SNB-78): > 100 µM (inactive)
- GI50 (SR): > 100 µM (inactive)
- GI50 (SW-620): > 100 µM (inactive)
- GI50 (TK-10): > 100 µM (inactive)
- GI50 (U-251): > 100 µM (inactive)
- GI50 (UACC-257): > 100 µM (inactive)
- GI50 (UACC-62): > 100 µM (inactive)
- GI50 (UO-31): > 100 µM (inactive)
